In the NIST ThermoML archive (doi:10.1016/j.jct.2005.02.003):

Assay: molar heat capacity at constant pressure
Settings: 101.33 kPa

CC(C)COC(C)(C)C [isobutyl tert-butyl ether]
Settings | molar heat capacity at constant pressure [J/K/mol]
5 K, Crystal | 0.38
7.68 K, Crystal | 1.339
8.33 K, Crystal | 1.743
8.97 K, Crystal | 2.217
9.61 K, Crystal | 2.779
10 K, Crystal | 3.042
10.26 K, Crystal | 3.32
11.02 K, Crystal | 4.139
11.92 K, Crystal | 5.166
12.83 K, Crystal | 6.289
13.74 K, Crystal | 7.45
14.65 K, Crystal | 8.714
15 K, Crystal | 9.221
15.57 K, Crystal | 10.02
16.48 K, Crystal | 11.42
17.41 K, Crystal | 12.82
18.34 K, Crystal | 14.27
19.27 K, Crystal | 15.69
20 K, Crystal | 16.85
20.2 K, Crystal | 17.2
21.22 K, Crystal | 18.77
22.29 K, Crystal | 20.45
23.35 K, Crystal | 22.1
24.42 K, Crystal | 23.8
25 K, Crystal | 24.7
25.49 K, Crystal | 25.53
26.55 K, Crystal | 27.09
27.63 K, Crystal | 28.56
28.7 K, Crystal | 30.12
29.77 K, Crystal | 31.74
30 K, Crystal | 32.07
30.84 K, Crystal | 33.37
31.91 K, Crystal | 34.71
32.98 K, Crystal | 36.13
34.05 K, Crystal | 37.59
35 K, Crystal | 38.76
35.12 K, Crystal | 38.89
36.19 K, Crystal | 40.25
37.26 K, Crystal | 41.63
38.34 K, Crystal | 42.83
39.41 K, Crystal | 44.07
40 K, Crystal | 44.8
40.47 K, Crystal | 45.31
41.54 K, Crystal | 46.53
42.6 K, Crystal | 47.83
43.66 K, Crystal | 48.91
44.72 K, Crystal | 50.25
45 K, Crystal | 50.39
45.78 K, Crystal | 51.18
46.84 K, Crystal | 52.39
47.9 K, Crystal | 53.45
48.96 K, Crystal | 54.66
50 K, Crystal | 55.71
50.01 K, Crystal | 55.57
51.07 K, Crystal | 56.57
52.12 K, Crystal | 57.81
53.17 K, Crystal | 59.02
54.22 K, Crystal | 60.27
55 K, Crystal | 60.91
55.27 K, Crystal | 61.56
56.31 K, Crystal | 63.16
57.36 K, Crystal | 64.51
58.41 K, Crystal | 64.56
59.46 K, Crystal | 65.29
60 K, Crystal | 66.03
63.63 K, Crystal | 70.22
64.68 K, Crystal | 70.75
65 K, Crystal | 71.08
65.72 K, Crystal | 72.16
66.76 K, Crystal | 73.11
67.8 K, Crystal | 74.04
68.84 K, Crystal | 74.44
69.88 K, Crystal | 75.46
70 K, Crystal | 76.09
70.92 K, Crystal | 76.66
71.95 K, Crystal | 77.53
74.01 K, Crystal | 79.84
75 K, Crystal | 81.05
75.04 K, Crystal | 81.32
76.07 K, Crystal | 82.23
77.1 K, Crystal | 83.09
79.16 K, Crystal | 85.64
80 K, Crystal | 85.97
80.19 K, Crystal | 86.55
80.42 K, Glass | 91.54
80.56 K, Crystal | 86.3
81.22 K, Crystal | 87.3
81.39 K, Glass | 92.71
82.25 K, Crystal | 88.55
82.32 K, Glass | 93.45
83.28 K, Crystal | 89.21
83.29 K, Glass | 95.2
83.57 K, Crystal | 89.05
84.28 K, Glass | 95.95
85 K, Crystal | 90.88
85.22 K, Glass | 97.36
86.13 K, Glass | 97.2
86.51 K, Crystal | 92.54
87.04 K, Glass | 98.86
87.51 K, Crystal | 93.29
87.98 K, Glass | 100.5
88.51 K, Crystal | 93.95
88.93 K, Glass | 101.4
89.5 K, Crystal | 95.12
89.88 K, Glass | 102.9
90 K, Crystal | 95.78
90.5 K, Crystal | 96.03
90.83 K, Glass | 103.8
91.51 K, Crystal | 97.11
91.79 K, Glass | 104.5
92.51 K, Crystal | 98.28
92.74 K, Glass | 105.8
93.5 K, Crystal | 99.11
93.68 K, Glass | 107.3
94.49 K, Crystal | 100.2
94.62 K, Glass | 107.9
95 K, Crystal | 100.6
95.48 K, Crystal | 101.4
95.55 K, Glass | 107.9
96.48 K, Crystal | 102.4
96.51 K, Glass | 109.8
97.47 K, Crystal | 103.3
97.47 K, Glass | 111.7
98.41 K, Glass | 112.7
98.47 K, Crystal | 104.1
99.31 K, Glass | 114.5
99.46 K, Crystal | 105
100 K, Crystal | 105.4
100.2 K, Glass | 113.8
100.45 K, Crystal | 105.8
101.1 K, Glass | 115.2
101.44 K, Crystal | 106.9
101.97 K, Glass | 117.3
102.44 K, Crystal | 108.1
102.84 K, Glass | 117.8
103.44 K, Crystal | 108.7
103.72 K, Glass | 119
104.44 K, Crystal | 109.5
104.61 K, Glass | 120.2
105.43 K, Crystal | 110.5
105.51 K, Glass | 121.5
106.41 K, Crystal | 111.5
106.42 K, Glass | 123.1
107.34 K, Glass | 124.7
107.39 K, Crystal | 112.7
108.29 K, Glass | 126.4
108.37 K, Crystal | 113.4
109.25 K, Glass | 128.9
109.35 K, Crystal | 114.2
110 K, Crystal | 114.9
110.23 K, Glass | 130
110.32 K, Crystal | 115.2
111.21 K, Glass | 134
111.31 K, Crystal | 116
112.18 K, Glass | 138.9
112.29 K, Crystal | 117
113.14 K, Glass | 146.1
113.28 K, Crystal | 117.8
114.06 K, Glass | 162.4
114.26 K, Crystal | 118.6
114.91 K, Glass | 193.9
115.24 K, Crystal | 119.6
115.82 K, Liquid | 198.1
116.22 K, Crystal | 120.5
116.8 K, Liquid | 199.6
117.2 K, Crystal | 121.3
117.8 K, Liquid | 200
118.17 K, Crystal | 122.1
118.8 K, Liquid | 200.4
119.15 K, Crystal | 123.1
119.8 K, Liquid | 200.7
120 K, Crystal | 124
120.12 K, Crystal | 124.2
120.79 K, Liquid | 201
121.09 K, Crystal | 124.8
121.77 K, Liquid | 201.5
122.76 K, Liquid | 202
123.02 K, Crystal | 126.6
123.76 K, Liquid | 202.1
123.99 K, Crystal | 127.8
124.76 K, Liquid | 202.3
124.96 K, Crystal | 128.5
125.75 K, Liquid | 202.9
125.92 K, Crystal | 129.5
126.75 K, Liquid | 202.9
126.91 K, Crystal | 130.2
127.1 K, Crystal | 130.5
127.74 K, Liquid | 203.5
127.9 K, Crystal | 130.9
128.73 K, Liquid | 204.2
128.89 K, Crystal | 131.3
129.13 K, Crystal | 131.9
129.7 K, Liquid | 204.7
130 K, Crystal | 132.7
130.13 K, Crystal | 132.5
130.64 K, Liquid | 204.9
131.57 K, Liquid | 205
132.12 K, Crystal | 134.9
132.51 K, Liquid | 205.5
133.1 K, Crystal | 135.4
133.45 K, Liquid | 205.9
134.08 K, Crystal | 135.9
134.39 K, Liquid | 206.2
135.33 K, Liquid | 206.4
136.02 K, Crystal | 137.6
136.26 K, Liquid | 206.9
136.98 K, Crystal | 138.6
137.2 K, Liquid | 207.9
137.94 K, Crystal | 138.9
138.89 K, Crystal | 140
139.84 K, Crystal | 140.1
140 K, Crystal | 140.5
